Results published in ChEMBL document CHEMBL1201862, “PubChem BioAssay data set” (2004).
The source made the active and inactive calls.

Experiments:
Large T antigen = Large T antigen (Simian virus 40, UniProt P03070); assay type: functional, Betapolyomavirus macacae;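 note: Confirmatory-stage PubChem screen for compounds that inhibit SV40 T antigen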
[1] = target: T1, Mannose-6-phosphate isomerase (Homo sapiens, UniProt P34949); test: human PMI inhibitors, high substrate, primary screen, biochemical, fluorescence intensity, high mannose 6-phosphate (AID 1220)
T1 sequence (P34949 whole entry): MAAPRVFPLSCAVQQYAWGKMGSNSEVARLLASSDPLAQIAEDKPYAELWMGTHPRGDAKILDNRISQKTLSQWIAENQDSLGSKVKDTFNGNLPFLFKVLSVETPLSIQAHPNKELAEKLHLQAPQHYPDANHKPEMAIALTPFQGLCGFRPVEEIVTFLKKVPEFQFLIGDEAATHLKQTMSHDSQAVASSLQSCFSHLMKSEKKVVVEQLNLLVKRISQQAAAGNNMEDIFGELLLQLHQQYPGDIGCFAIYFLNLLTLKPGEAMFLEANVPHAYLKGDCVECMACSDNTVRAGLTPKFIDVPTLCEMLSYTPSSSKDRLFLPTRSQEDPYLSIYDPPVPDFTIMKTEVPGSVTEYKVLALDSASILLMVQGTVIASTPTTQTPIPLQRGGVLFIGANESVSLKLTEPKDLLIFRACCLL

[2] = target: Eukaryotic translation initiation factor 4E (Mus musculus, UniProt P63073); test: eIF4E–eIF4G protein interaction inhibitors, dose response, biochemical, TR-FRET (AID 855); assay type: functional;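 note: potency for disrupting eIF4E binding to eIF4GI seen as loss of FRET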
Insulin-degrading enzyme = target: T2, Insulin-degrading enzyme (Homo sapiens, UniProt P14735); test: Dose Response: Fluorescence polarization-based cell-based high throughput dose response assay for inhibitors of insulin-degrading enzyme (IDE). [Related pubchem assays: 434962 (Primary screen (IDE inhibitors in singlicate)), 449730 (Counterscreen (Cytotoxicity in triplicate)), 435028 (Confirmation (IDE inhibitors in triplicate)), 434984 (Summary …; assay type: functional
T2 sequence (P14735 whole entry): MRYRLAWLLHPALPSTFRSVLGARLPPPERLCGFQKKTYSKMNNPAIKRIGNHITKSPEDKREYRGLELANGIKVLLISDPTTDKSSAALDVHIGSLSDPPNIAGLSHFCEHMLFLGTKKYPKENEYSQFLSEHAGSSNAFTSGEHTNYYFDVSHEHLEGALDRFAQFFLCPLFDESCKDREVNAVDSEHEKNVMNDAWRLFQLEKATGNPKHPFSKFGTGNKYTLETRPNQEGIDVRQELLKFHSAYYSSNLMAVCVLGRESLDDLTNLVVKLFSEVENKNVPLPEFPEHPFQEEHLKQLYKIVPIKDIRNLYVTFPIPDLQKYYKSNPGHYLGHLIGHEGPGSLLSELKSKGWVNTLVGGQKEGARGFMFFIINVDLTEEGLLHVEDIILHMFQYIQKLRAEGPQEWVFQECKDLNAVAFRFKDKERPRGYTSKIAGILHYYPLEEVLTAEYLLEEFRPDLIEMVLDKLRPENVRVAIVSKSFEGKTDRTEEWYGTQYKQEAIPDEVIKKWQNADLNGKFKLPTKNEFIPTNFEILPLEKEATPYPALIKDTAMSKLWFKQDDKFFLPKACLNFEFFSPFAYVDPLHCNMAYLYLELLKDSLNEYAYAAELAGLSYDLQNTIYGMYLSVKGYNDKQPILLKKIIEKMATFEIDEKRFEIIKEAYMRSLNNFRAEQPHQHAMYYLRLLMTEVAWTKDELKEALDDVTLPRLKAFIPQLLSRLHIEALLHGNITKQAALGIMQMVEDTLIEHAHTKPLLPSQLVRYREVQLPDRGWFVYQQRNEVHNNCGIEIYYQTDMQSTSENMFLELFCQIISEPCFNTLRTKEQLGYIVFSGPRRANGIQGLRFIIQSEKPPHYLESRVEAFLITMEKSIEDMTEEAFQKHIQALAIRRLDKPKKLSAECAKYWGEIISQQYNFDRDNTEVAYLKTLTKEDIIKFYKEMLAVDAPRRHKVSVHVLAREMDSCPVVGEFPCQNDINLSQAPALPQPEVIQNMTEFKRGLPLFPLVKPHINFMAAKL

[3] = target: T1, Mannose-6-phosphate isomerase; test: inhibitors of human PMI, primary screen, biochemical, fluorescence intensity, coupled assay (AID 1209)
Phosphomannomutase 2 = target: T3, Phosphomannomutase 2 (Homo sapiens, UniProt O15305); test: Counter screen SAR assay for PMM2 inhibitors via a fluorescence intensity assay. [Related pubchem assays (depositor defined):AID1545, AID1574]
T3 sequence (O15305 whole entry): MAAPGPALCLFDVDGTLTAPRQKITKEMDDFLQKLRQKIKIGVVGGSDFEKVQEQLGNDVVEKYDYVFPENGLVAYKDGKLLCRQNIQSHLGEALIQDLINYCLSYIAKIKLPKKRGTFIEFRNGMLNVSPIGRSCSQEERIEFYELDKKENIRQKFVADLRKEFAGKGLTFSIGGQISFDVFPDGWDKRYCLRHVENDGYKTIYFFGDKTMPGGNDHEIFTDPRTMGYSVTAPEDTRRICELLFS

[4] = target: Phosphoethanolamine/phosphocholine phosphatase (Homo sapiens, UniProt Q8TCT1); test: SAR assay for compounds that inhibit PHOSPHO1. [Related pubchem assays (depositor defined):AID1545, AID1565, AID1574]
Procathepsin L = Procathepsin L (Homo sapiens, UniProt P07711)
Aspartyl aminopeptidase = target: T4, Aspartyl aminopeptidase (Plasmodium falciparum 3D7, UniProt Q8I2J3)
T4 sequence (Q8I2J3 whole entry): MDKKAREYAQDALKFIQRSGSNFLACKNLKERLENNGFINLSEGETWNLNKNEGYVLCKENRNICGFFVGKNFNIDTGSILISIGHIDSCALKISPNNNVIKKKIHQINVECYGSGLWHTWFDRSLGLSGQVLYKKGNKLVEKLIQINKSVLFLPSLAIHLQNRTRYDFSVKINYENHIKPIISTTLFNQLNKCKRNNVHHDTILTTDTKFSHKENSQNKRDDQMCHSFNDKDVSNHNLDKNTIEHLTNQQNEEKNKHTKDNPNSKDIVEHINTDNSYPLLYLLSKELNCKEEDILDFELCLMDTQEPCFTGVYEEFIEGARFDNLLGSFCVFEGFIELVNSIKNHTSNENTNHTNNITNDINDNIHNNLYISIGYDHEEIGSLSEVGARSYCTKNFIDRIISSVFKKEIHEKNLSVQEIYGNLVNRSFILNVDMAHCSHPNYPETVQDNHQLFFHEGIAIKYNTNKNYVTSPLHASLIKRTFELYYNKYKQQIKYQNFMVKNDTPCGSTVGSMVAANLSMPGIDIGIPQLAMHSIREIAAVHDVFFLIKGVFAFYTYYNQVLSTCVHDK

[5] = inhibitors of intracellular T. cruzi replication, confirmation, NIH3T3 host cells, beta-gal luminescence (AID 2044); assay type: functional, cell-based;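 note: intracellular parasites grown in NIH/3T3 mouse fibroblasts as host cells; luminescent beta-galactosidase reporter signal from transgenic T. cruzi replicating inside host cells; inhibitors lower the luminescence signal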
[6] = Counterscreen for IDE inhibitors: Luminescence-based cell-based high throughput dose response assay to identify compounds that are cytotoxic to HEK cells. [Related pubchem assays: 434962 (Primary screen (IDE inhibitors in singlicate)), 449730 (Counterscreen (Cytotoxicity in triplicate)), 435028 (Confirmation (IDE inhibitors in triplicate)) …; assay type: functional; conditions: HEK293
[7] = cytotoxicity toward NIH3T3 fibroblasts, dose response, counter-screen, cell-based, ATP luminescence, mouse fibroblasts (AID 2010); assay type: functional;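 note: cells exposed to compound for about 90 hours before reading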
[8] = target: T5, Alkaline phosphatase, tissue-nonspecific isozyme (Homo sapiens, UniProt P05186); test: human TNAP enzyme inhibitors, SAR follow-up, biochemical, luminescent, dose response (AID 1056)
T5 sequence (P05186 whole entry): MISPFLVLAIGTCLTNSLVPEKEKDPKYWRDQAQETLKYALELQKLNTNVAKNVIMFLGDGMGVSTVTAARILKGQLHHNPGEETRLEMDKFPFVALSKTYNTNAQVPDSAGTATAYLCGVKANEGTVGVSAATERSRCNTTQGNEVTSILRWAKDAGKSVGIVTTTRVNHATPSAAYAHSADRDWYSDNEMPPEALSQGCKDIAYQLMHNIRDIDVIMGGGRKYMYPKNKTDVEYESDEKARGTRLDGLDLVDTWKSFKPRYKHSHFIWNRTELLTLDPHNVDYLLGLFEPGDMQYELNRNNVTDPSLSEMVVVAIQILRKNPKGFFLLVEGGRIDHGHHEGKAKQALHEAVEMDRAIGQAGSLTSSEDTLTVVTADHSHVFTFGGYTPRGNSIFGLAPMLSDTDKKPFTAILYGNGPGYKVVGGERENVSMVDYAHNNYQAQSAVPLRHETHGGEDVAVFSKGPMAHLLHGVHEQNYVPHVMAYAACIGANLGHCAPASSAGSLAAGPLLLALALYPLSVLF

[9] = target: T1, Mannose-6-phosphate isomerase; test: PMI enzyme inhibitors, confirmation, biochemical, fluorescence intensity (AID 1535)
NADPH oxidase 1 = NADPH oxidase 1 (Homo sapiens, UniProt Q9Y5S8); assay type: functional, cell-based;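 note: Cell-based assay with luminescence read-out, IC50 derived from inhibitor dose-response curves; intracellular ROS from endogenous NOX1 in intact HT29 colon cancer cells; potency of inhibitors that lower the ROS luminescence signal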
Protein RecA = target: T6, Protein RecA (Mycobacterium tuberculosis, UniProt P9WHJ3); test: Fluorescence Cell-Free Homogeneous Dose Retest to Identify Inhibitors of RecA-Intein Splicing Activity. [Related pubchem assays (depositor defined):AID2097, AID2223, AID489010, AID492950]; assay type: functional
T6 sequence (P9WHJ3 whole entry): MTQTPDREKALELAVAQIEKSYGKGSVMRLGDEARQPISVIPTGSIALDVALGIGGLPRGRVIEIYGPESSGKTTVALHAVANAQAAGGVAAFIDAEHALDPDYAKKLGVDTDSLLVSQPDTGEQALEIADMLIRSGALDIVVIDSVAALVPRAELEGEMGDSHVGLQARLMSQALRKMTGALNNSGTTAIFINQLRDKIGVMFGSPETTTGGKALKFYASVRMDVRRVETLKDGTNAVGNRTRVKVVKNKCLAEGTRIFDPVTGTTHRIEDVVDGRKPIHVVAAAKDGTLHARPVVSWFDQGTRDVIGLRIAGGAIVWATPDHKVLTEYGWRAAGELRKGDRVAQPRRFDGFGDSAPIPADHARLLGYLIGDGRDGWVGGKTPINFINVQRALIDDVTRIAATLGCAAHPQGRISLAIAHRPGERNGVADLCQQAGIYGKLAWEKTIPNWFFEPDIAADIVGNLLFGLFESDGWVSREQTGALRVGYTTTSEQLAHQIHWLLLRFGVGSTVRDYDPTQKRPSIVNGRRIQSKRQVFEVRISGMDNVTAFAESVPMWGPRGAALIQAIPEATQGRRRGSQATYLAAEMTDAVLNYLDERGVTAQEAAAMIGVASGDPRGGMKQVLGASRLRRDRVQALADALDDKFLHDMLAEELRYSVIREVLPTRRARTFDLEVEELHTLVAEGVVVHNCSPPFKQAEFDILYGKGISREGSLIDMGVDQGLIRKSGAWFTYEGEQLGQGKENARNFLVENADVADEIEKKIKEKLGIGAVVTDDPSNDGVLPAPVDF

[10] = target: T7, Replicative DNA helicase DnaB (Mycobacterium tuberculosis, UniProt P9WMR3); test: DnaB intein splicing inhibitors, dose response, biochemical, cell-free fluorescence (AID 449749); assay type: functional
T7 sequence (P9WMR3 whole entry): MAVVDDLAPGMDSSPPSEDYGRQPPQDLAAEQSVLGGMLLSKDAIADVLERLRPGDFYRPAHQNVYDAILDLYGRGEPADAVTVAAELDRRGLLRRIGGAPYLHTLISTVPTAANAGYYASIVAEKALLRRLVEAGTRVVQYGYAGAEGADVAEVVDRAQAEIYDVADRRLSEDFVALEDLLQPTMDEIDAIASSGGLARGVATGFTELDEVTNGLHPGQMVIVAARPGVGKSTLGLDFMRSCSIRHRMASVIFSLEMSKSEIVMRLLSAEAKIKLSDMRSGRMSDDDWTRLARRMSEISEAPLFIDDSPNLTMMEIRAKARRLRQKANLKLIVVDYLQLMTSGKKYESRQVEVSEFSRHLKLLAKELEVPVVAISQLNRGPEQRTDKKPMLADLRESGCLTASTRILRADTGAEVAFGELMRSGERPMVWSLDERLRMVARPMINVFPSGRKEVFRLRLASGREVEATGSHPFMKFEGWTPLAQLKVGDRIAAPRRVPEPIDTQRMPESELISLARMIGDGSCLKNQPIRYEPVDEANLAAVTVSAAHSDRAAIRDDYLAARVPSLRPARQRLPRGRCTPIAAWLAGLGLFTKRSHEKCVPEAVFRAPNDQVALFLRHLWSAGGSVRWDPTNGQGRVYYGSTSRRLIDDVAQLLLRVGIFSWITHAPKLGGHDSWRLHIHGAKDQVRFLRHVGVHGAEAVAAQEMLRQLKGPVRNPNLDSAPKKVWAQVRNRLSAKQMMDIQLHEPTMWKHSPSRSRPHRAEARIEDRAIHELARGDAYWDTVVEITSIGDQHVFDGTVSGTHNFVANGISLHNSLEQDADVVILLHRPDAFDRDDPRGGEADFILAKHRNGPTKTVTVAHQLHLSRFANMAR

Estrogen receptor beta [11] = target: T8, Estrogen receptor beta (Homo sapiens, UniProt Q92731);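 note: recombinant ER-beta bound to coactivator SRC1 peptide in presence of estradiol agonist; inhibitors block coactivator peptide binding and lower the FRET signal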
Estrogen receptor beta [12] = target: T8, Estrogen receptor beta; test: ERβ–SRC-3 coactivator interaction inhibitors, confirmation, orthogonal assay, biochemical, ELISA, streptavidin-HRP readout (AID 1060)

T8 sequence (Q92731 whole entry): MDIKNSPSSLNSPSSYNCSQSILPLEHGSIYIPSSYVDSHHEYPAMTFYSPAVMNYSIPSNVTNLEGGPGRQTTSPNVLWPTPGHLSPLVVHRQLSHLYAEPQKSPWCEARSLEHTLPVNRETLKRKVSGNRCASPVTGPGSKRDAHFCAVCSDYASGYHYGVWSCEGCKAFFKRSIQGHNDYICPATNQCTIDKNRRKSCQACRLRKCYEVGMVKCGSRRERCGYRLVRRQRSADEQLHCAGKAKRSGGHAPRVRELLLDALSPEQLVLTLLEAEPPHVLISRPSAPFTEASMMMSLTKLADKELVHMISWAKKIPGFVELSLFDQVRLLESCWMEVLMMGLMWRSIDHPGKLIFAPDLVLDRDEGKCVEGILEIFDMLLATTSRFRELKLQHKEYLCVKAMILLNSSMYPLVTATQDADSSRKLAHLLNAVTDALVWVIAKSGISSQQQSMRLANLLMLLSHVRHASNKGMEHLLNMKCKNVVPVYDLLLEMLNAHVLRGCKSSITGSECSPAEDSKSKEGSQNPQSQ
Chain of Procathepsin L (P07711 whole entry): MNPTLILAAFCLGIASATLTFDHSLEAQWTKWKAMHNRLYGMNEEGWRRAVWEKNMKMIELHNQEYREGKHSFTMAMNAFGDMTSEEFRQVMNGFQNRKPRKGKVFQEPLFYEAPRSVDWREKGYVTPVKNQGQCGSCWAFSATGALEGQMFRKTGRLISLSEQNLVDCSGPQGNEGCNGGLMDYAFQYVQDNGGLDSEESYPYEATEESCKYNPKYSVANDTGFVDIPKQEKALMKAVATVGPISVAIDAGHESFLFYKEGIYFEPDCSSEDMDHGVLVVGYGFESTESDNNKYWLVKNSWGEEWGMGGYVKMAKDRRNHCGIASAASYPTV
Chain of Phosphoethanolamine/phosphocholine phosphatase (Q8TCT1 whole entry): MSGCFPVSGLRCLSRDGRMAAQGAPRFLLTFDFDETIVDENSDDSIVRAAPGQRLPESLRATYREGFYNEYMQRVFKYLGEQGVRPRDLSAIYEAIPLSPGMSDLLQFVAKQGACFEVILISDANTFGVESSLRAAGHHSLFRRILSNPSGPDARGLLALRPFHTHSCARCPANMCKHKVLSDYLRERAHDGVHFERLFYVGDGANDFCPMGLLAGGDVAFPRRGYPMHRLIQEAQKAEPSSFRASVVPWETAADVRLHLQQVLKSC
Chain of Eukaryotic translation initiation factor 4E (P63073 whole entry): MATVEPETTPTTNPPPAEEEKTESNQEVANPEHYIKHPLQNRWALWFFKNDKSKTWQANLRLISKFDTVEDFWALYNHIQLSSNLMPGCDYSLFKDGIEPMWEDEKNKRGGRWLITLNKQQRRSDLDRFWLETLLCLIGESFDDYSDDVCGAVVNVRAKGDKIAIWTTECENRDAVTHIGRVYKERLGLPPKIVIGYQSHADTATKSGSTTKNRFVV
Chain of NADPH oxidase 1 (Q9Y5S8 whole entry): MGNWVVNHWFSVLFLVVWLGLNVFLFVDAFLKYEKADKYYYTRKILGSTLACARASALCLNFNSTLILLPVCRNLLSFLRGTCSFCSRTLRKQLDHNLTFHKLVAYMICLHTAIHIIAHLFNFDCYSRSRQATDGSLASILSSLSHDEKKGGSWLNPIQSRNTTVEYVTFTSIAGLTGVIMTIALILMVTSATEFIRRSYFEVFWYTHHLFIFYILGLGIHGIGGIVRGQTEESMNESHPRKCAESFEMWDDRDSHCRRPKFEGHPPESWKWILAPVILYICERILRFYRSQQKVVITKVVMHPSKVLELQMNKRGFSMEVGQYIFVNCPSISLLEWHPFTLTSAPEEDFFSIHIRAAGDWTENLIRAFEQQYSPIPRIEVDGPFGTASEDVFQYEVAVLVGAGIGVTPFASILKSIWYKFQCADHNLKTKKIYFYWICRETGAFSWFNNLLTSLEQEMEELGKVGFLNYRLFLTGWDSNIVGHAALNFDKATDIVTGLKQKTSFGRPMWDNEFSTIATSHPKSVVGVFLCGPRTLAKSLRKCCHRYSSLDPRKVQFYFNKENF
Chain of Large T antigen (P03070 whole entry): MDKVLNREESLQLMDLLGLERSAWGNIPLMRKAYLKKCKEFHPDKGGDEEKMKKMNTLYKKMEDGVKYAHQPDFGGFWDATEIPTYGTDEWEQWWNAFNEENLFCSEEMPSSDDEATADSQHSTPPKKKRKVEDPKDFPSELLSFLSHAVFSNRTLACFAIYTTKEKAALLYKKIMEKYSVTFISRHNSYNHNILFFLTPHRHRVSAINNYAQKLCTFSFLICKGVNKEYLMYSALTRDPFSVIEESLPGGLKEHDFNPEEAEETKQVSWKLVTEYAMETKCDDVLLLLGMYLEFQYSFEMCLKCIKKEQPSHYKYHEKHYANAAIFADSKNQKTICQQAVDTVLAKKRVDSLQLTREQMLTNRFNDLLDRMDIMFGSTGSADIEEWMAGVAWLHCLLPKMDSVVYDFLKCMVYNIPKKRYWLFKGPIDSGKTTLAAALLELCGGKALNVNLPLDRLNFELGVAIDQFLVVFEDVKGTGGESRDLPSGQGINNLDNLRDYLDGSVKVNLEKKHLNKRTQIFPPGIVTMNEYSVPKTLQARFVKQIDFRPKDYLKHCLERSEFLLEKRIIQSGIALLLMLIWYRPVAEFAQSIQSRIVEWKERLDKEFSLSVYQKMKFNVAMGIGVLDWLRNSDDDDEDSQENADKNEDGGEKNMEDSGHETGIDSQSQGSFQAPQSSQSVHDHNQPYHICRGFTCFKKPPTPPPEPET

Structure (SMILES): Cc1ccc(-n2sc3ccccc3c2=O)cc1S(=O)(=O)N1CCCCC1
- IC50 (Large T antigen): 26.1 µM (active)
- IC50 [1]: > 50 µM (not active)
- IC50 [2]: 1.93 µM (active)
- IC50 (Insulin-degrading enzyme): 4.05 µM (active)
- IC50 [3]: > 50 µM (not active)
- IC50 (Phosphomannomutase 2): 14.6 µM (active)
- IC50 [4]: 1.84 µM (inactive)
- IC50 (Procathepsin L): > 59.6 µM (not active)
- IC50 (Aspartyl aminopeptidase): 4.28 µM (active)
- EC50 [5]: 0.89 µM (active)
- IC50 [6]: 10.5 µM (not active)
- EC50 [7]: > 60 µM (not active)
- IC50 [8]: > 100 µM (inactive)
- IC50 [9]: 3.06 µM (active)

Structure (SMILES): c1ccc(-c2nc(-c3ccccc3)c(-c3ccccc3)o2)cc1
- IC50 (NADPH oxidase 1): > 17 µM (not active)

Structure (SMILES): CC1(N2CCOCC2)CC2(O)C(=[N+]1[O-])CCc1nonc12 (centres undefined)
- EC50 (Protein RecA): 11.9 µM (active)
- AC50 [10]: > 380 µM (inactive)
- IC50 (Estrogen receptor beta [11]): 12 µM (active)
- IC50 (Estrogen receptor beta [12]): 0.256 µM (not active)
